ChEMBL document CHEMBL3271983, “Potential antitumor agents. 26. Anionic congeners of the 9-anilinoacridines” (J Med Chem, 1978)

Assay: physchem
Description: Dissociation constant, basic pKa of the compound by UV spectrophotometry

First: O=S(=O)(O)Cc1ccc(Nc2c3ccccc3nc3ccccc23)cc1
Second: NS(=O)(=O)Cc1ccc(Nc2c3ccccc3nc3ccccc23)cc1
The pKa of the first is higher: 7.64 for the first, 7.05 for the second.

Compared with `O=C(O)COc1ccc(Nc2c3ccccc3nc3ccccc23)cc1`, `O=C(O)Cc1ccc(Nc2c3ccccc3nc3ccccc23)cc1` is lower in pKa: 8.19 for the first, 7.92 for the second.

Compared with `O=S(=O)(O)CCc1ccc(Nc2c3ccccc3nc3ccccc23)cc1`, `NS(=O)(=O)CCc1ccc(Nc2c3ccccc3nc3ccccc23)cc1` is lower in pKa: 7.77 for the first, 7.43 for the second.

Going from `O=C(O)c1cccc(Nc2c3ccccc3nc3ccccc23)c1` to `O=C(O)Cc1cccc(Nc2c3ccccc3nc3ccccc23)c1`, the pKa rises from 7.62 to 7.82.

Compared with `O=C(O)c1ccc(Nc2c3ccccc3nc3ccccc23)cc1`, `NC(=O)c1ccc(Nc2c3ccccc3nc3ccccc23)cc1` is lower in pKa: 7.17 for the first, 6.47 for the second.

Going from `O=C(O)/C=C/c1ccc(Nc2c3ccccc3nc3ccccc23)cc1` to `O=C(O)CCc1ccc(Nc2c3ccccc3nc3ccccc23)cc1`, the pKa rises from 7.17 to 7.91.

Going from `NC(=O)CCc1ccc(Nc2c3ccccc3nc3ccccc23)cc1` to `NC(=O)Cc1ccc(Nc2c3ccccc3nc3ccccc23)cc1`, the pKa falls from 7.63 to 7.43.

Going from `CS(=O)(=O)Nc1cccc(Nc2c3ccccc3nc3ccccc23)c1` to `COc1cc(NS(C)(=O)=O)ccc1Nc1c2ccccc2nc2ccccc12` [AMSACRINE], the pKa rises from 6.85 to 7.43.

Going from `Cc1cccc2c(Nc3ccc(NS(C)(=O)=O)cc3)c3ccccc3nc12` to `CS(=O)(=O)Nc1ccc(Nc2c3ccccc3nc3c(C(N)=O)cccc23)cc1`, the pKa falls from 7.15 to 6.12.

Going from `NS(=O)(=O)c1ccc(Nc2c3ccccc3nc3ccccc23)cc1` to `O=S(=O)(O)c1ccc(Nc2c3ccccc3nc3ccccc23)cc1`, the pKa rises from 6.11 to 6.87.

First: O=[N+]([O-])c1ccc(Nc2c3ccccc3nc3ccccc23)cc1
Second: COC(=O)c1ccc(Nc2c3ccccc3nc3ccccc23)cc1
The pKa of the first is lower: 5.58 for the first, 6.21 for the second.

First: CC(=O)Nc1ccc2c(Nc3ccc(C(=O)O)cc3)c3ccccc3nc2c1
Second: Nc1ccc2c(Nc3ccc(C(=O)O)cc3)c3ccccc3nc2c1
The pKa of the first is lower: 7.42 for the first, 8.9 for the second.

Compared with `N#Cc1ccc(Cc2c3ccccc3nc3ccccc23)cc1`, `Brc1ccc(Cc2c3ccccc3nc3ccccc23)cc1` is higher in pKa: 5.93 for the first, 7 for the second.

`COc1cc(C(=O)O)ccc1Nc1c2ccccc2nc2ccccc12` and `O=C(O)c1ccccc1Nc1c2ccccc2nc2ccccc12` are within 0.2 log units of each other in pKa: 7.41 for the first, 7.28 for the second.

First: CS(=O)(=O)Nc1ccc(Nc2cc(N=[N+]=[N-])nc3ccccc23)cc1
Second: CS(=O)(=O)Nc1ccc(Nc2c3ccccc3nc3cc(I)ccc23)cc1
The pKa of the first is higher: 7 for the first, 6.52 for the second.

Compared with `O=C(O)Cc1ccccc1Nc1c2ccccc2nc2ccccc12`, `c1ccc(Cc2c3ccccc3nc3ccccc23)cc1` is lower in pKa: 8.12 for the first, 7.46 for the second.

Going from `CC(=O)c1ccc(Cc2c3ccccc3nc3ccccc23)cc1` to `CC(=O)Nc1ccc(Cc2c3ccccc3nc3ccccc23)cc1`, the pKa rises from 6.12 to 7.51.

Compared with `Clc1ccc(Cc2c3ccccc3nc3ccccc23)cc1`, `Cc1ccc(Cc2c3ccccc3nc3ccccc23)cc1` is higher in pKa: 7.06 for the first, 7.72 for the second.

Going from `O=S(=O)(Nc1ccc(Cc2c3ccccc3nc3ccccc23)cc1)c1ccccc1` to `COC(=O)Nc1ccc(Cc2c3ccccc3nc3ccccc23)cc1`, the pKa rises from 7.09 to 7.64.

First: CNC(=O)Nc1ccc(Cc2c3ccccc3nc3ccccc23)cc1
Second: Nc1ccc(Cc2c3ccccc3nc3ccccc23)cc1
The pKa of the first is lower: 7.77 for the first, 8.36 for the second.

Compared with `COc1ccc(Cc2c3ccccc3nc3ccccc23)cc1`, `CN(c1ccc(Nc2c3ccccc3nc3ccccc23)cc1)S(C)(=O)=O` is lower in pKa: 7.94 for the first, 6.95 for the second.

Going from `COc1cc(NS(C)(=O)=O)ccc1Cc1c2ccccc2nc2cc([N+](=O)[O-])ccc12` to `COc1cc(NS(C)(=O)=O)ccc1Cc1c2ccc([N+](=O)[O-])cc2nc2cc([N+](=O)[O-])ccc12`, the pKa falls from 5.72 to 3.82.

Going from `COc1cc(NS(C)(=O)=O)ccc1Cc1c2c(nc3ccccc13)CC(=N)C=C2` to `COc1cc(NS(C)(=O)=O)ccc1Cc1c2c(nc3ccccc13)C(=N)CC=C2`, the pKa rises from 5.53 to 6.09.

Compound `CC(=O)Nc1ccc2c(Nc3ccc(NS(C)(=O)=O)cc3)c3ccccc3nc2c1` has a pKa of 7.34.

Assay: physchem
Remark: another data set of the same source
Description: Dissociation constant, acidic pKa of the compound by UV spectrophotometry

In the case of `O=C(O)c1ccc(Nc2c3ccccc3nc3ccccc23)cc1`, the pKa is reported as 4.2.
